In patent publication US20240300949A1, “NOVEL CRYSTALLINE FORM OF 1-(8-BROMOPYRIDO[2,3-E][1,2,4]TRIAZOLO[4,3-A]PYRAZIN-4-YL)-N-METHYLAZETIDIN-3-AMINE HEMISUCCINATE” (JW PHARMACEUTICAL CORPORATION, priority 2021, published 2024):

Experiments:
[1] = solid-state stability on micronization; format: physicochemical
[2] = solid-state stability on drying in vacuum oven at 60° C. (XRPD, FIG. 8); format: physicochemical
Text: Form F is a channel hydrate and generally channel hydrates/solvates are not very stable since the solvent molecules easily can move in and out of the channels and causes collapse of the crystal lattice. In the case of form F the water molecules are placed in the same molecular plane as the succinate molecules which stabilize the hydrate and makes form F particularly useful for use in a solid pharmaceutical product, such as in a tablet. Furthermore, form F can be dried under moderate drying conditions such as in a vacuum oven at 60° C. […] Also form F has been found suitable for large scale drying.
FIG. 8: XRPD's of Form F stored in vacuum at 60° for different periods of time. At each time point of a quick XRPD (9 min) and a normal XRPD (1 hour) were recorded
XRPD patterns were collected with a PANalytical X'pert Empyrean diffractometer using an incident Cu Kα radiation and operating at 45 kV and 40 mA. The XRPD patterns were collected in the 2 theta range from 3 to 60 degrees with a step size of 0.013°, counting time of 198.645s and in transmission geometry. 25 repetitions were done and summarized. In the incident beam path, an parabolic shaped beam Cu W/Si (hybrid MPD) monochromator together with a 10 mm fixed mask, fixed anti-scatter slit ⅛° and fixed divergence slits of 1/16° were placed to line focus the Cu Kα X-rays through the sample and onto the detector. […]

[3] = system: inflammatory cells such as mast cells and eosinophils; conditions: background statement, refers to U.S. Pat. No. 9,586,959; cited from earlier work
histamine 4 receptor = histamine 4 receptor (Homo sapiens, UniProt Q9H3N8); conditions: background statement, refers to U.S. Pat. No. 9,586,959; cited from earlier work
Chain of histamine 4 receptor (Q9H3N8 whole entry): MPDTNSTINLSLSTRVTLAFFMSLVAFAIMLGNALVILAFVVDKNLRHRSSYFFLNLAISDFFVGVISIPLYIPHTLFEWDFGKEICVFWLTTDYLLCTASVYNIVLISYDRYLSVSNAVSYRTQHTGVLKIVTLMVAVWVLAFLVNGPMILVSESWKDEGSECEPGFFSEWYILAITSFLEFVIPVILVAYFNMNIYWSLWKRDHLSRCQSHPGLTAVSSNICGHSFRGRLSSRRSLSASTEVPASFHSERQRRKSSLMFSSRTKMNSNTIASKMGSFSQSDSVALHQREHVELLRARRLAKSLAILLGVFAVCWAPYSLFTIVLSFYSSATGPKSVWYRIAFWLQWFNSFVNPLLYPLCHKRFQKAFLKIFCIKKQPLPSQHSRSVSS

| Compound | stability of crystalline form on micronization [1] | crystal lattice stability on drying [2] | effect against histamine induced infiltration of inflammatory cells such as mast cells and eosinophils [3] | histamine 4 receptor inhibitory effect (histamine 4 receptor) |
| --- | --- | --- | --- | --- |
| 1-(8-bromopyrido[2,3-e][1,2,4]triazolo[4,3-a]pyrazin-4-yl)-N-methylazetidin-3-amine hemisuccinate monohydrate [form F] | tolerates micronization without undergoing amorphization | without collapsing the crystal lattice | – | – |
| CNC1CN(c2nc3ncc(Br)cc3n3cnnc23)C1 [1-(8-bromopyrido[2,3-e][1,2,4]triazolo[4,3-a]pyrazin-4-yl)-N-methylazetidin-3-amine] | – | – | suppressive effects | strong |
